In data set [1] the test system is MDS. The following applies: cited from earlier work.
The nature of data set [2]: Phase 1 trials of Hu5F9-G4 monotherapy. The class given is in vivo. The following applies: Phase 1 trial.
Data set [3] has as its system human AML. Description: nonclinical xenograft models of human AML. The data set is classed as in vivo. The conditions noted are these: mice. For orientation: In xenograft studies the graft and the host belong to different species.
[4] abbreviates: pivotal randomized trial leading to azacitidine approval in MDS.

As to `Nc1ncn([C@@H]2O[C@H](CO)[C@@H](O)[C@H]2O)c(=O)n1` [azacitidine], the “known CR rate” value in data set [1] (azacitidine alone) is listed as 17.85%. In addition, in data set [1] (setting [4]), the “CR+PR rate, point estimate” value was 15.7% and the “CR+PR rate, upper bound of the 1-sided 95% confidence interval” value is given as 23.5%.
Consider “Hu5F9-G4: humanized IgG4 kappa monoclonal antibody targeting human CD47; heavy chain SEQ ID NO: 50, light chain SEQ ID NO: 51”, for which, in data set [2], the “maximum tolerated dose (MTD)” value was “has not been reached” and the tolerability result is on record as “well tolerated”. In addition, in data set [3], the “leukemic disease in the peripheral blood and bone marrow” value is “robust elimination of leukemic disease in the peripheral blood and bone marrow which results in long term remissions in a high percentage of mice treated”.

The values above are taken from patent US11795223B2, “Combination therapies for treating myelodysplastic syndromes and acute myeloid leukemia” (Forty Seven, Inc., priority 2019, dated 2023).
